Test results taken from patent US10793542B2, “Hetroarylamine compounds for modulating the hedgehog pathway and preparing method and uses thereof” (DEVELOPMENT CENTER FOR BIOTECHNOLOGY, priority 2016, dated 2020).

Legend:
Type in all cases: cell-based
[1] = test system: hedgehog pathway (pGL3-7xGli-Luciferase reporter in C3H10T1/2 cells); assay: Transient transfection of C3H10T1/2 and Gli-Luc reporter assay with SAG stimulation; details: Mus musculus, C3H 10T1/2, SAG 20 nM, 48 hr, read-out: Inhibition of Gli-Luc expression [IC50
Experimental: A cell-based screen for inhibitors of the hedgehog pathway was performed using a transient transfection system in C3H10T1/2 cells with pGL3-7xGli-Luciferase reporter plasmids C3H10T1/2 cells (ATCC, cat.#CCL-226) were seeded into 6-well plates at 8×10^4 cells/well in a BME medium containing 10% heat-inactivated FBS. Cells were transfected the next morning with 500 ng/well pGL3-7xGli-Luciferase reporter plasmids and 100 ng/well pRL-TK Renilla luciferase reporter plasmids (Promega)using GeneJuice transfection reagent (Novagene). After 24 h, transfected cells were collected by trypsin treatment and re-plated in 96-well plates in an RPMI medium containing 0.5% FBS with a density of 1.5×10^4 cells/well. Compounds were dissolved in DMSO with serial dilutions and were then added to the assay plate. SAG (Hh-Ag 1.3) (Santa Cruz) was added to the assay plated for a final concentration 20 nM. The assay plates were incubated at 37° C. for 48 hr.
(§1) Firefly luciferase and Renilla luciferase activity was determined using the Dual-Glo Luciferase reporter assay system (Promega) with a Victor3 plate reader (PerkinElmer Life Sciences). Firefly luciferase readings were normalized to Renilla luciferase to correct for transfection efficiency. Luminance reading for the C3H10T1/2-Gli-Luc assay was normalized based on DMSO control with SAG stimulation (100% pathway activity) and without SAG stimulation (0% pathway activity). IC50 values, defined as the inflection point of the logistic curve, were determined by nonlinear regression using the Prism 5 software (GraphPad).

Smo D473H mutant = biological target: T1, Smo D473H mutant (Homo sapiens, UniProt Q99835, D473H); assay: Reporter assay of C3H10T1/2-Gli-Luc cells transfected with Smo D473H mutant, without SAG; details: C3H10T1/2 cells transfected with pLPCX-SMO-D473H, no SAG, 48 hr; read-out: Inhibition of C3H10T1/2-Gli-Luc-Smo-D473H [IC50
T1 construct: expressed in transfected cells; host or cells: C3H10T1/2 cells (ATCC CCL-226), transient transfection with pLPCX-SMO-D473H
T1 sequence (Q99835 28-787 D473H): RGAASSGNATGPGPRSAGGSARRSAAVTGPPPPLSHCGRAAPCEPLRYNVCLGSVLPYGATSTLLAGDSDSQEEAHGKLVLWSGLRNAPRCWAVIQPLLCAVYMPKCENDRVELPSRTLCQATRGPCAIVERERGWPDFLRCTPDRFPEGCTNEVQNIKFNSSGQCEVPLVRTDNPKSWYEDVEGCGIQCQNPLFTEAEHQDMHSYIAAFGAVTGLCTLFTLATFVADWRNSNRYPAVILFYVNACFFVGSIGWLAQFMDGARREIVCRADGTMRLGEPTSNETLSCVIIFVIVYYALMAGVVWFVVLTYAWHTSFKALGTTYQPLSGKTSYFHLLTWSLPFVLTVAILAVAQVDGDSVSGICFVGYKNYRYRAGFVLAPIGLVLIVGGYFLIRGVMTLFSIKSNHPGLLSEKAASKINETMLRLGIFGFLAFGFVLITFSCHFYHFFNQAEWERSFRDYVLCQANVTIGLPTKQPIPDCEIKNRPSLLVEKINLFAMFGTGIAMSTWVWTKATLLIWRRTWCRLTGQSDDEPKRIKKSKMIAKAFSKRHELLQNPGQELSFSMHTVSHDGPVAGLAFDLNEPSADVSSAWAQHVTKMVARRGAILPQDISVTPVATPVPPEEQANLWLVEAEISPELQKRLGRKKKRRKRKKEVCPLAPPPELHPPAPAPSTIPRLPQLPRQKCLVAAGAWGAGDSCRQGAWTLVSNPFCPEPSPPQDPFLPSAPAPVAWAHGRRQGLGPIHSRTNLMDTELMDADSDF
Experimental: (§2) A transient transfection system with a Smo wild type or a Smo D473H mutant was also used for compound screening. For the SMO inhibition experiments, cells were transfected with an additional 500 ng/well of wild-type or D473H-mutant type SMO construct (pLPCX-SMO or pLPCX-SMO-D473H). After 24 h, transfected cells were collected by trypsin treatment and re-plated in 96-well plates in an RPMI medium containing 0.5% FBS with a density of 1.5×10^4 cells/well. Compounds were dissolved in DMSO with serial dilutions and were then added to the assay plate. The assay plates were incubated at 37° C. for 48 hr.
as §1
(§3) The reporter assay of C3H10T1/2-Gli-Luc cells transfected with a wild-type, D473H mutant Smo mutant was carried out with the same protocol but without SAG stimulation. Luminance reading for the SMO inhibition experiments assay was normalized based on DMSO control (100% of the pathway activity) and a known Smo antagonist (ALLO-2 at 10 μM, 0% of the pathway activity).

Smo wild type = biological target: T2, Smo wild type (Homo sapiens, UniProt Q99835); assay: Reporter assay of C3H10T1/2-Gli-Luc cells transfected with wild-type Smo, without SAG; details: C3H10T1/2 cells transfected with pLPCX-SMO, no SAG, 48 hr; read-out: Inhibition of C3H10T1/2-Gli-Luc-Smo-WT [IC50
T2 construct: expressed in transfected cells; host or cells: C3H10T1/2 cells (ATCC CCL-226), transient transfection with pLPCX-SMO
T2 sequence (Q99835 28-787): as the sequence (Q99835 28-787 D473H) above, with H446D counted along it
Experimental: as §2, §1, §3

IC50 [1] [nM] | IC50 (Smo D473H mutant) [nM] | IC50 (Smo wild type) [nM] | SMILES
100 to 1000 | > 1000 | 100 to 1000 | CSc1cnc(Nc2ccc(C(=O)Nc3c(C)cccc3C)cc2)nc1-c1ccc(OC(F)(F)F)cc1 [Compound 1, N-(2,6-Dimethyl-phenyl)-4-[5-methylsulfanyl-4-(4-trifluoromethoxy-phenyl) -pyrimidin-2-ylamino]-benzamide]
100 to 1000 | 100 to 1000 | 100 to 1000 | CSc1cnc(Nc2ccc(C(=O)Nc3c(C)cccc3C)cc2)nc1-c1ccc(C#N)cc1 [Compound 2, 4-[4-(4-Cyano-phenyl)-5-methylsulfanyl-pyrimidin-2-ylamino]-N-(2,6-dimethyl-phenyl)-benzamide]
100 to 1000 | 100 to 1000 | 100 to 1000 | CSc1cnc(Nc2ccc(C(=O)Nc3ccccc3)cc2)nc1-c1ccc(C#N)cc1 [Compound 3, 4-[4-(4-Cyano-phenyl)-5-methylsulfanyl-pyrimidin-2-ylamino]-N-phenyl-benzamide]
100 to 1000 | 100 to 1000 | 100 to 1000 | CSc1cnc(Nc2ccc(C(=O)Nc3ccc(C(F)(F)F)c(Cl)c3)cc2)nc1-c1ccc(C#N)cc1 [Compound 4, N-(3-Chloro-4-trifluoromethyl-phenyl)-4-[4-(4-cyano-phenyl)-5-methylsulfanyl-pyrimidin-2-ylamino]-benzamide]
100 to 1000 | 100 to 1000 | 100 to 1000 | CSc1cnc(Nc2ccc(C(=O)Nc3ccccc3)cc2)nc1-c1cccnc1F [Compound 5, 4-[4-(2-Fluoro-pyridin-3-yl)-5-methylsulfanyl-pyrimidin-2-ylamino]-N-phenyl-benzamide]
< 100 | < 100 | < 100 | CSc1cnc(Nc2ccc(C(=O)Nc3c(C)cccc3C)cc2)nc1-c1cccnc1F [Compound 6, N-(2,6-Dimethyl-phenyl)-4-[4-(2-fluoro-pyridin-3-yl)-5-methylsulfanyl-pyrimidin-2-ylamino]-benzamide]
100 to 1000 | 100 to 1000 | 100 to 1000 | CCOc1ccc(-c2nc(Nc3ccc(C(=O)Nc4ccc(Cl)c(C(F)(F)F)c4)cc3)ncc2SC)cn1 [Compound 7, N-(4-Chloro-3-trifluoromethyl-phenyl)-4-[4-(6-ethoxy-pyridin-3-yl)-5-methylsulfanyl-pyrimidin-2-ylamino]-benzamide]
100 to 1000 | 100 to 1000 | 100 to 1000 | CSc1cnc(Nc2ccc(C(=O)Nc3c(F)cccc3F)cc2)nc1-c1cccnc1F [Compound 8, N-(2,6-Difluoro-phenyl)-4-[4-(2-fluoro-pyridin-3-yl)-5-methylsulfanyl-pyrimidin-2-ylamino]-benzamide]
< 100 | 100 to 1000 | < 100 | COc1cccc(OC)c1NC(=O)c1ccc(Nc2ncc(SC)c(-c3cccnc3F)n2)cc1 [Compound 9, N-(2,6-Dimethoxy-phenyl)-4-[4-(2-fluoro-pyridin-3-yl)-5-methylsulfanyl-pyrimidin-2-ylamino]-benzamide]
100 to 1000 | 100 to 1000 | 100 to 1000 | CSc1cnc(Nc2ccc(C(=O)Nc3c(F)cccc3F)cc2)nc1-c1cccnc1 [Compound 10, N-(2,6-Difluoro-phenyl)-4-(5-methylsulfanyl-4-pyridin-3-yl-pyrimidin-2-ylamino)-benzamide]
100 to 1000 | 100 to 1000 | 100 to 1000 | CSc1cnc(Nc2ccc(C(=O)Nc3ccccc3C)cc2)nc1-c1cccnc1F [Compound 11, 4-[4-(2-Fluoro-pyridin-3-yl)-5-methylsulfanyl-pyrimidin-2-ylamino]-N-o-tolyl-benzamide]
100 to 1000 | 100 to 1000 | 100 to 1000 | CSc1cnc(Nc2ccc(C(=O)Nc3c(C)cccc3C)cc2F)nc1-c1cccnc1F [Compound 12, N-(2,6-Dimethyl-phenyl)-3-fluoro-4-[4-(2-fluoro-pyridin-3-yl)-5-methylsulfanyl-pyrimidin-2-ylamino]-benzamide]
100 to 1000 | 100 to 1000 | 100 to 1000 | COc1cccc(OC)c1NC(=O)c1ccc(Nc2ncc(SC)c(-c3cccnc3F)n2)c(F)c1 [Compound 13, N-(2,6-Dimethoxy-phenyl)-3-fluoro-4-[4-(2-fluoro-pyridin-3-yl)-5-methylsulfanyl-pyrimidin-2-ylamino]-benzamide]
< 100 | 100 to 1000 | 100 to 1000 | COc1cccc(C)c1NC(=O)c1ccc(Nc2ncc(SC)c(-c3cccnc3F)n2)cc1 [Compound 14, 4-[4-(2-Fluoro-pyridin-3-yl)-5-methylsulfanyl-pyrimidin-2-ylamino]-N-(2-methoxy-6-methyl-phenyl)-benzamide]
< 100 | 100 to 1000 | < 100 | COc1cccc(C)c1NC(=O)c1ccc(Nc2ncc(SC)c(-c3cccnc3F)n2)c(F)c1 [Compound 15, 3-Fluoro-4-[4-(2-fluoro-pyridin-3-yl)-5-methylsulfanyl-pyrimidin-2-ylamino]-N-(2-methoxy-6-methyl-phenyl)-benzamide]
100 to 1000 | 100 to 1000 | 100 to 1000 | CSc1cnc(Nc2ccc(C(=O)Nc3ccccc3C)cc2F)nc1-c1cccnc1F [Compound 16, 3-Fluoro-4-[4-(2-fluoro-pyridin-3-yl)-5-methylsulfanyl-pyrimidin-2-ylamino]-N-o-tolyl-benzamide]
100 to 1000 | 100 to 1000 | 100 to 1000 | COc1cccc(C)c1NC(=O)c1ccc(Nc2ncc(SC)c(-c3ccc(F)nc3)n2)c(F)c1 [Compound 17, 3-Fluoro-4-[4-(6-fluoro-pyridin-3-yl)-5-methylsulfanyl-pyrimidin-2-ylamino]-N-(2-methoxy-6-methyl-phenyl)-benzamide]
100 to 1000 | 100 to 1000 | 100 to 1000 | CSc1cnc(Nc2ccc(C(=O)Nc3ccc(C#N)cc3)cc2)nc1-c1cccnc1F [Compound 18, N-(4-Cyano-phenyl)-4-[4-(2-fluoro-pyridin-3-yl)-5-methylsulfanyl-pyrimidin-2-ylamino]-benzamide]
100 to 1000 | 100 to 1000 | 100 to 1000 | CSc1cnc(Nc2ccc(C(=O)Nc3ccccc3C)cc2)nc1-c1ccccc1 [Compound 19, 4-(5-Methylsulfanyl-4-phenyl-pyrimidin-2-ylamino)-N-o-tolyl-benzamide]
< 100 | 100 to 1000 | < 100 | CSc1cnc(Nc2ccc(C(=O)Nc3cc(CN4CCOCC4)ccc3C)cc2)nc1-c1ccccc1 [Compound 20, N-(2-Methyl-5-morpholin-4-ylmethyl-phenyl)-4-(5-methylsulfanyl-4-phenyl-pyrimidin-2-ylamino)-benzamide]
< 100 | 100 to 1000 | < 100 | COc1cccc(OC)c1NC(=O)c1ccc(Nc2ncc(SC)c(-c3ccccc3)n2)cc1 [Compound 21, N-(2,6-Dimethoxy-phenyl)-4-(5-methylsulfanyl-4-phenyl-pyrimidin-2-ylamino)-benzamide]
< 100 | 100 to 1000 | < 100 | COc1cccc(OC)c1NC(=O)c1ccc(Nc2ncc(SC)c(-c3ccc(OC(F)(F)F)cc3)n2)cc1 [Compound 22, N-(2,6-Dimethoxy-phenyl)-4-[5-methylsulfanyl-4-(4-trifluoromethoxy-phenyl)-pyrimidin-2-ylamino]-benzamide]
100 to 1000 | 100 to 1000 | < 100 | CSc1cnc(Nc2ccc(C(=O)Nc3ccccc3C)cc2)nc1-c1ccc(OC(F)(F)F)cc1 [Compound 23, 4-[5-Methylsulfanyl-4-(4-trifluoromethoxy-phenyl)-pyrimidin-2-ylamino]-N-o-tolyl-benzamide]
